From US8377974B2 (Millennium Pharmaceuticals, Inc., priority 2004, dated 2013) come the findings set out here.

For the test, the target named is T1, human plasma protein factor Xa (Homo sapiens, UniProt P00742).
T1 construct: measure proteolytic activity of the enzyme (factor Xa); purchased Haematologic Technologies (Essex Junction, Vt.); host or cells: human plasma
T1 sequence (P00742 235-488 limits assumed): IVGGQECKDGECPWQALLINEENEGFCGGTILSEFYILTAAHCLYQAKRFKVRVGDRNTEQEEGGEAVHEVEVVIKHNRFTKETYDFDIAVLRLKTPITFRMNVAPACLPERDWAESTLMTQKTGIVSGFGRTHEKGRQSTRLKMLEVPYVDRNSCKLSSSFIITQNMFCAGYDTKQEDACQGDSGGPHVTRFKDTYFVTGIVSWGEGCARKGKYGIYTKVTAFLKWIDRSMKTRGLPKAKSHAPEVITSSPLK
T1 sequence (P00742 41-179 partner limits assumed): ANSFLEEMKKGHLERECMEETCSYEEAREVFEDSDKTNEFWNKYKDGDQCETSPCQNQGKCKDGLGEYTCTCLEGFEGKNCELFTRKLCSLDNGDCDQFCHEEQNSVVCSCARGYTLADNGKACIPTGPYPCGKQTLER
The experiment in a line: Factor Xa IC50 determination: cleavage of paranitroanilide substrate S-2765 in 96-well plates. The note with it: fXa 1 nM, S-2765 100 μM, Tris buffered saline pH 7.4, room temperature. It counts as biochemical. The source says:
This example illustrates methods for evaluating the compounds of the invention, along with results obtained for such assays. The in vitro and in vivo Factor Xa isoform activities of the inventive compounds can be determined by various procedures known in the art, such as a test for their ability to inhibit the activity of the Factor Xa isoform. […] The IC50 value is the concentration (in nM) of the compound required to provide 50% inhibition of Factor Xa isoform.
An in vitro assay for detecting and measuring inhibition activity against Factor Xa is as follows:
The substrate S-2765 (Z-D-Arg-Gly-Arg-pNA.HCl) was obtained from Diapharma (West Chester, Ohio).
The human plasma protein factor Xa was purchased from Haematologic Technologies (Essex Junction, Vt.).
All assays, which are performed in 96-well microtiter plates, measure proteolytic activity of the enzyme (factor Xa) by following cleavage of paranitroanilide substrate. The assay buffer used for proteolytic assays was Tris buffered saline (20 mM Tris, 150 mM NaCl, 5 mM CaCl2, 0.1% Bovine serum albumin (BSA), 5% Dimethly Sulfoxide (DMSO) pH 7.4). In a 96-well microtiter plate, inhibitor was serially diluted to give a range of concentrations from 0.01 nM to 10 μM (final). Duplicate sets of wells were assayed and control wells without inhibitor were included. Enzyme was added to each well, (fXa concentration=1 nM), the plate was shaken for 5 seconds and then incubated for 5 minutes at room temperature. S2765 was added (100 μM final) and the plate was shaken for 5 seconds (final liquid volume in each well was 200 μl). The degree of substrate hydrolysis was measured at 405 nm on a Thermomax plate reader (Molecular Devices, Sunnyvale, Calif.) for 2 minutes. The initial velocities (mOD/min), for each range of inhibitor concentrations, were fitted to a four parameter equation using Softmax data analysis software. The parameter C, derived from the resulting curve-fit, corresponded to the concentration for half maximal inhibition (IC50).
`C[C@H](NC(=O)c1ccc(Cl)s1)c1cc(-c2ccc(C(=N)N3CCCCC3)cc2)no1` [Example 56, (S)-5-Chloro-thiophene-2-carboxylic acid (1-{3-[4-(imino-piperidin-1-yl-methyl)-phenyl]-isoxazol-5-yl}-ethyl)-amide] showed an IC50 of no more than 0.1 µM.

Compound `CN(C)C(=N)c1ccc(C2=NOC(C)(CNC(=O)c3ccc(Cl)s3)C2)cc1` (stereo not shown) [Example 57, 5-Chloro-thiophene-2-carboxylic acid {3-[4-(N,N-dimethyl-carbamimidoyl)-phenyl]-5-methyl-4,5-dihydro-isoxazol-5-ylmethyl}-amide] displayed an IC50 of no more than 0.1 µM.

On to `CN1CCN=C1c1ccc(C2=NOC(C)(CNC(=O)c3ccc(Cl)s3)C2)cc1` (stereo not shown) [Example 58, 5-Chloro-thiophene-2-carboxylic acid {5-methyl-3-[4-(1-methyl-4,5-dihydro-1H-imidazol-2-yl)-phenyl]-4,5-dihydro-isoxazol-5-ylmethyl}-amide], for which the IC50 was no more than 0.1 µM.

Turning to `CC1(CNC(=O)c2ccc(Cl)s2)CC(c2ccc(C(=N)N3CCCC3)cc2)=NO1` (stereo not shown) [Example 59, 5-Chloro-thiophene-2-carboxylic acid {3-[4-(imino-pyrrolidin-1-yl-methyl)-phenyl]-5-methyl-4,5-dihydro-isoxazol-5-ylmethyl}-amide], the 50% inhibitory concentration (IC50) is no more than 0.1 µM.

In the case of `CC1(CNC(=O)c2ccc(Cl)s2)CC(c2ccc(C(=N)N3CCCCC3)cc2)=NO1` (stereo not shown) [Example 60, 5-Chloro-thiophene-2-carboxylic acid {3-[4-(imino-piperidin-1-yl-methyl)-phenyl]-5-methyl-4,5-dihydro-isoxazol-5-ylmethyl}-amide], the 50% inhibitory concentration (IC50) is no more than 0.1 µM.

`CCOC(=O)C1CCN(C(=N)c2ccc(C3=NOC(C)(CNC(=O)c4ccc(Cl)s4)C3)cc2)CC1` (stereo not shown) [Example 61, 1-{[4-(5-{[(5-Chloro-thiophene-2-carbonyl)-amino]-methyl}-5-methyl-4,5-dihydro-isoxazol-3-yl)-phenyl]-imino-methyl}-piperidine-4-carboxylic acid ethyl ester] came in with a half-inhibitory concentration (IC50) of no more than 0.1 µM.

In the case of `CC1(CNC(=O)c2ccc(Cl)s2)CC(c2ccc(C(=N)N3CCC3)cc2)=NO1` (stereo not shown) [Example 62, 5-Chloro-thiophene-2-carboxylic acid {3-[4-(azetidin-1-yl-imino-methyl)-phenyl]-5-methyl-4,5-dihydro-isoxazol-5-ylmethyl}-amide], the IC50 is no more than 0.1 µM.

On to `CC1(CNC(=O)c2ccc(Cl)s2)CC(c2ccc(C(N3CCC3)=[N+]3CCC3)cc2)=NO1` (stereo not shown) [Example 63, 5-Chloro-thiophene-2-carboxylic acid {3-[4-(azetidin-1-yl-azetidin-1-ylidene-methyl)-phenyl]-5-methyl-4,5-dihydro-isoxazol-5-ylmethyl}-amide], for which the IC50 was no more than 0.1 µM.

The compound `CCN(C)C(=N)c1ccc(C2=NOC(C)(CNC(=O)c3ccc(Cl)s3)C2)cc1` (stereo not shown) [Example 64, 5-Chloro-thiophene-2-carboxylic acid {3-[4-(N-ethyl-N-methyl-carbamimidoyl)-phenyl]-5-methyl-4,5-dihydro-isoxazol-5-ylmethyl}-amide] came in with an IC50 of no more than 0.1 µM.

In turn, `CN(C)CCN(C)C(=N)c1ccc(C2=NOC(C)(CNC(=O)c3ccc(Cl)s3)C2)cc1` (stereo not shown) [Example 65, 5-Chloro-thiophene-2-carboxylic acid (3-{4-[N-(2-dimethylamino-ethyl)-N-methyl-carbamimidoyl]-phenyl}-5-methyl-4,5-dihydro-isoxazol-5-ylmethyl)-amide] had a half-inhibitory concentration (IC50) of no more than 0.1 µM.

In turn, `COCCN(C)C(=N)c1ccc(C2=NOC(C)(CNC(=O)c3ccc(Cl)s3)C2)cc1` (stereo not shown) [Example 66, 5-Chloro-thiophene-2-carboxylic acid (3-{-4-[N-(2-methoxy-ethyl)-N-methyl-carbamimidoyl]-phenyl}-5-methyl-4,5-dihydro-isoxazol-5-ylmethyl)-amide] gave an IC50 of 0.1 to 0.5 µM.

In turn, `CN(Cc1ccco1)C(=N)c1ccc(C2=NOC(C)(CNC(=O)c3ccc(Cl)s3)C2)cc1` (stereo not shown) [Example 67, 5-Chloro-thiophene-2-carboxylic acid {3-[4-(N-furan-2-ylmethyl-N-methyl-carbamimidoyl)-phenyl]-5-methyl-4,5-dihydro-isoxazol-5-ylmethyl}-amide] came in with an IC50 of no more than 0.1 µM.

`CC1(CNC(=O)c2ccc(Cl)s2)CC(c2ccc(C(=N)N3CCC(C(N)=O)CC3)cc2)=NO1` (stereo not shown) [Example 68, 1-{[4-(5-{[(5-Chloro-thiophene-2-carbonyl)-amino]-methyl}-5-methyl-4,5-dihydro-isoxazol-3-yl)-phenyl]-imino-methyl}-piperidine-4-carboxylic acid amide] came in with a half-maximal inhibitory concentration (IC50) of 0.1 to 0.5 µM.

Compound `CNC(=N)c1ccc(C2=NOC(C)(CNC(=O)c3ccc(Cl)s3)C2)cc1` (stereo not shown) [Example 69, 5-Chloro-thiophene-2-carboxylic acid {5-methyl-3-[4-(N-methylcarbamimidoyl)-phenyl]-4,5-dihydro-isoxazol-5-ylmethyl}-amide] had a 50% inhibitory concentration (IC50) of no more than 0.1 µM.

For the compound `CN1CCN=C1c1ccc(-c2cc(CNC(=O)c3ccc(Cl)s3)on2)c(F)c1` [Example 70, 5-Chloro-thiophene-2-carboxylic acid {3-[2-fluoro-4-(1-methyl-4,5-dihydro-1H-imidazol-2-yl)-phenyl]-isoxazol-5-ylmethyl}-amide], the IC50 was no more than 0.1 µM.

On to `N=C(c1ccc(-c2cc(CNC(=O)c3ccc(Cl)s3)on2)c(F)c1)N1CCCC1` [Example 71, 5-Chloro-thiophene-2-carboxylic acid {3-[2-fluoro-4-(imino-pyrrolidin-1-yl-methyl)-phenyl]-isoxazol-5-ylmethyl}-amide], for which the half-maximal inhibitory concentration (IC50) was no more than 0.1 µM.

The compound `N=C(c1ccc(-c2cc(CNC(=O)c3ccc(Cl)s3)on2)c(F)c1)N1CCCCC1` [Example 72, 5-Chloro-thiophene-2-carboxylic acid {3-[2-fluoro-4-(imino-piperidin-1-yl-methyl)-phenyl]-isoxazol-5-ylmethyl}-amide] displayed an IC50 of no more than 0.1 µM.

As for `CN(C)C(=N)c1ccc(C2=NOC(CNC(=O)c3ccc(Cl)s3)C2)c(N(C)C)c1` (stereo not shown) [Example 74, 5-Chloro-thiophene-2-carboxylic acid {3-[2-dimethylamino-4-(N,N-dimethyl-carbamimidoyl)-phenyl]-4,5-dihydro-isoxazol-5-ylmethyl}-amide], the IC50 is 0.1 to 0.5 µM.

On to `CN1CCN=C1c1ccc(C2=NOC(CNC(=O)c3ccc(Cl)s3)C2)c(N(C)C)c1` (stereo not shown) [Example 75, 5-Chloro-thiophene-2-carboxylic acid {3-[2-dimethylamino-4-(1-methyl-4,5-dihydro-1H-imidazol-2-yl)-phenyl]-4,5-dihydro-isoxazol-5-ylmethyl}-amide], for which the IC50 lay in the range of 0.1 to 0.5 µM.

`CN(C)c1cc(C(=N)N2CCCC2)ccc1C1=NOC(CNC(=O)c2ccc(Cl)s2)C1` (stereo not shown) [Example 76, 5-Chloro-thiophene-2-carboxylic acid {3-[2-dimethylamino-4-(imino-pyrrolidin-1-yl-methyl)-phenyl]-4,5-dihydro-isoxazol-5-ylmethyl}-amide] showed an IC50 of 0.1 to 0.5 µM.

In turn, `CN(C)c1cc(C(=N)N2CCCCC2)ccc1C1=NOC(CNC(=O)c2ccc(Cl)s2)C1` (stereo not shown) [Example 77, 5-Chloro-thiophene-2-carboxylic acid {3-[2-dimethylamino-4-(imino-piperidin-1-yl-methyl)-phenyl]-4,5-dihydro-isoxazol-5-ylmethyl}-amide] had a concentration for half-maximal inhibition (IC50) of no more than 0.1 µM.

`CN(C)C(=N)c1ccc(C2=NOC(CNC(=O)c3ccc(Cl)s3)C2)c(N2CCCC2)c1` (stereo not shown) [Example 78, 5-Chloro-thiophene-2-carboxylic acid {3-[4-(N,N-dimethyl-carbamimidoyl)-2-pyrrolidin-1-yl-phenyl]-4,5-dihydro-isoxazol-5-ylmethyl}-amide]: the IC50 lay in the range of 0.1 to 0.5 µM.

Consider `CN1CCN=C1c1ccc(C2=NOC(CNC(=O)c3ccc(Cl)s3)C2)c(N2CCCC2)c1` (stereo not shown) [Example 79, 5-Chloro-thiophene-2-carboxylic acid {3-[4-(1-methyl-4,5-dihydro-1H-imidazol-2-yl)-2-pyrrolidin-1-yl-phenyl]-4,5-dihydro-isoxazol-5-ylmethyl}-amide], for which the 50% inhibitory concentration (IC50) fell in the range of 0.1 to 0.5 µM.

`N=C(c1ccc(C2=NOC(CNC(=O)c3ccc(Cl)s3)C2)c(N2CCCC2)c1)N1CCCC1` (stereo not shown) [Example 80, 5-Chloro-thiophene-2-carboxylic acid {3-[4-(imino-pyrrolidin-1-yl-methyl)-2-pyrrolidin-1-yl-phenyl]-4,5-dihydro-isoxazol-5-ylmethyl}-amide]: the half-maximal inhibitory concentration (IC50) lay within 0.1 to 0.5 µM.

The compound `N=C(c1ccc(C2=NOC(CNC(=O)c3ccc(Cl)s3)C2)c(N2CCCC2)c1)N1CCCCC1` (stereo not shown) [Example 81, 5-Chloro-thiophene-2-carboxylic acid {3-[4-(imino-piperidin-1-yl-methyl)-2-pyrrolidin-1-yl-phenyl]-4,5-dihydro-isoxazol-5-ylmethyl}-amide] came in with a half-inhibitory concentration (IC50) of no less than 0.5 µM.

As usually defined, the IC50 is the midpoint of a concentration-inhibition curve.
